Laboratory results taken from patent publication US8382729B2, “Adhesive patch” (Hisamitsu Pharmaceutical Co., Inc., priority 2008, dated 2013).

Assay: Measurement of plasma concentration after patch application
Type: in vivo, human
Conditions: for AUC(0-t) / Cmax: male, human, in vivo
Method: The blood was collected at each of 0, 0.5, 1, 2, 3, 4, 6, 8, 10, 12, 18, and 24 hours from the start of the application, and the amount of blood collected each time was 7 mL.
The plasma concentrations of the methyl salicylate, its metabolite salicylic acid, and the 1-menthol were each measured. The measurement was performed by liquid chromatography-mass spectrometry for the salicylic acid and by gas chromatography-mass spectrometry for the methyl salicylate and the 1-menthol. Each of the measurement methods was validated beforehand to confirm measurement reliability. Incidentally, values obtained by subtracting an endogenous concentration before the application (measurement value on 0 hour from the start of the application) from an actual measurement value were used as plasma concentrations during the application. The Cmax and AUC0-24 were calculated according to the changes in the measurement values of these plasma concentrations over time.
Changes in the plasma concentrations of the salicylic acid, the methyl salicylate, and the 1-menthol over time are shown in FIG. 4 to FIG. 6. In addition, the pharmacokinetic parameters (mean, maximum value, and minimum value of Cmax and AUC0-24) of each of the drugs are shown in Table 6. Incidentally, a mean in the figure was an average value from the seven human subjects and represented using a standard deviation (SD). This measurement of the plasma concentrations was performed according to the guideline of FDA (U.S. Food and Drug Administration) (Gaidance for Industry=Bioanalytical Method Validation).

[1] = plasma, 280 cm^2 adhesive patch of Example 1 (methyl salicylate 336 mg, l-menthol 100 mg) applied 8 hours, seven healthy males, baseline-subtracted
[2] = plasma, 280 cm^2 adhesive patch of Example 1 applied 8 hours, seven healthy males

AUC(0-t) (AUC0-24, Maximum Value) [ng·h/mL] | AUC(0-t) (AUC0-24, Minimum Value) [ng·h/mL] | Cmax (Maximum Value) [ng/mL] | Cmax (Minimum Value) [ng/mL] | SMILES | AUC0-24, Mean ± SD [1] [ng·h/mL] | Cmax, Mean ± SD [1] [ng/mL] | AUC0-24, Maximum Value [2] [ng·h/mL] | AUC0-24, Minimum Value [2] [ng·h/mL] | Cmax, Maximum Value [2] [ng/mL] | Cmax, Minimum Value [2] [ng/mL]
 |  |  |  | CC(C)[C@@H]1CC[C@@H](C)C[C@H]1O [l-Menthol] | 53.6 ± 33.4 | 10.7 ± 6.4 | 109 | 15.4 | 22.5 | 4.5
11800 | 3950 | 1770 | 705 | O=C(O)c1ccccc1O [Salicylic Acid] |  |  |  |  |  | 
50 | 8.1 | 33 | 3.5 | COC(=O)c1ccccc1O [Methyl Salicylate] |  |  |  |  |  | 
